Where a SMILES comes first, the peptide text is derived from it. Bridges are numbered along the chain shown (N, C = ends). [ ]: non-standard residue; d: D form. The star is where a group is joined. ξ: configuration not given here. Phe(4-COOH) = N[C@@H](Cc1ccc(C(=O)O)cc1)C(=O)O; Bip = N[C@@H](Cc1ccc(-c2ccccc2)cc1)C(=O)O; Phe(3-Me) = Cc1cccc(C[C@H](N)C(=O)O)c1; Cha = N[C@@H](CC1CCCCC1)C(=O)O; Cit = NC(=O)NCCC[C@H](N)C(=O)O; Thr(3ξ) = CC(O)[C@H](N)C(=O)O; hSer = N[C@@H](CCO)C(=O)O; Carboxymethyl = O=C(O)C*; NMeA = CN[C@@H](C)C(=O)O; Aun = NCCCCCCCCCCC(=O)O; Dab = NCC[C@H](N)C(=O)O; AEEA = NCCOCCOCC(=O)O

The test deals with T1, PD-1/PD-L1 interaction (PE-labeled human PD-L1-Ig binding to Jurkat cell line over-expressing human PD-1) (Homo sapiens, UniProt Q15116).
T1 construct: expressed in transfected cells; host or cells: Jurkat
T1 sequence (Q15116 25-288): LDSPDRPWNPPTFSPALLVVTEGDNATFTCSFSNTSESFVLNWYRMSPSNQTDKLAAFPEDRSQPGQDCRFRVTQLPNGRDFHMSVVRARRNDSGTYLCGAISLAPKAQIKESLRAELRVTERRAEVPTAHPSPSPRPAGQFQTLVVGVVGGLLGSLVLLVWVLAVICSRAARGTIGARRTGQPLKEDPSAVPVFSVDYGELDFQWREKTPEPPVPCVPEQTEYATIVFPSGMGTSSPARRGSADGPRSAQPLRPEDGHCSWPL
As to the kind of experiment: Jurkat-PD-1 Cell Binding High-Content Screening Assay (CBA). The note with it: Jurkat-hPD-1 cells, PE-labeled PD-L1-Ig 20 nM final; read-out: Jurkat HPD1 PDL1 IC50. Summed up:
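Cells 8×10^3/well, DMEM + 10% FCS; cpd 2 h, 37 °C; PE–PD-L1-Ig 20 nM final, 1 h; PFA fix + Hoechst 33342, 3× dPBS wash; high-content imager.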
For `Cc1cccc(C[C@@H]2NC(=O)[C@H](CC(=O)O)NC(=O)[C@H](Cc3ccc(OCC(=O)O)cc3)NC(=O)[C@H](C(C)O)NC(=O)CSC[C@@H](C(=O)N[C@@H](CCN)C(=O)NCCCCCCCCCCC(=O)O)NC(=O)[C@H](C(C)O)NC(=O)[C@H](C(C)C)NC(=O)[C@H](CC3CCCCC3)NC(=O)[C@H](CCN)NC(=O)[C@@H](CC(C)C)NC(=O)[C@H](C)N(C)C(=O)[C@H](Cc3ccc(OCC(=O)O)cc3)NC(=O)[C@H](Cc3ccc(-c4ccccc4)cc3)NC(=O)[C@H](C(C)C)NC2=O)c1` (stereo partly drawn) [Example 2309] ({CH2CO}-[Thr(3ξ)]Y(Carboxymethyl)D[Phe(3-Me)]V[Bip]Y(Carboxymethyl)[NMeA][dL][Dab][Cha]V[Thr(3ξ)]C[Dab][Aun]-OH; thioether N-14), the IC50 is 27.9 nM.

With `Cc1cccc(C[C@@H]2NC(=O)[C@H](CC(=O)O)NC(=O)[C@H](Cc3ccc(OCC(=O)O)cc3)NC(=O)[C@H](C(C)O)NC(=O)CSC[C@@H](C(=O)N[C@@H](CCN)C(=O)NCCCCCCCCCCC(=O)O)NC(=O)[C@H](C(C)O)NC(=O)[C@H](C(C)C)NC(=O)[C@H](CC3CCCCC3)NC(=O)[C@H](CCN)NC(=O)[C@@H](CC(C)C)NC(=O)[C@H](C)N(C)C(=O)[C@H](Cc3ccc(OCC(=O)O)cc3)NC(=O)[C@H](Cc3ccc(-c4ccccc4)cc3)NC(=O)[C@H](Cc3ccc(OCC(=O)O)cc3)NC2=O)c1` (stereo partly drawn) [Example 2310] ({CH2CO}-[Thr(3ξ)]Y(Carboxymethyl)D[Phe(3-Me)]Y(Carboxymethyl)[Bip]Y(Carboxymethyl)[NMeA][dL][Dab][Cha]V[Thr(3ξ)]C[Dab][Aun]-OH; thioether N-14), the IC50 turned out to be 12.1 nM.

For `Cc1cccc(C[C@@H]2NC(=O)[C@H](CC(=O)O)NC(=O)[C@H](Cc3ccc(OCC(=O)O)cc3)NC(=O)[C@H](C(C)O)NC(=O)CSC[C@@H](C(=O)N[C@@H](CCN)C(=O)NCCCCCCCCCCC(=O)O)NC(=O)[C@H](C(C)O)NC(=O)[C@H](C(C)C)NC(=O)[C@H](CC3CCCCC3)NC(=O)[C@H](CCN)NC(=O)[C@@H](CC(C)C)NC(=O)[C@H](C)N(C)C(=O)[C@H](Cc3ccc(C(=O)O)cc3)NC(=O)[C@H](Cc3ccc(-c4ccccc4)cc3)NC(=O)[C@H](Cc3ccc(C(=O)O)cc3)NC2=O)c1` (stereo partly drawn) [Example 2311] ({CH2CO}-[Thr(3ξ)]Y(Carboxymethyl)D[Phe(3-Me)][Phe(4-COOH)][Bip][Phe(4-COOH)][NMeA][dL][Dab][Cha]V[Thr(3ξ)]C[Dab][Aun]-OH; thioether N-14), the IC50 was 21.3 nM.

For `Cc1cccc(C[C@@H]2NC(=O)[C@H](CC(=O)O)NC(=O)[C@H](Cc3ccc(OCC(=O)O)cc3)NC(=O)[C@H](CCCNC(=N)N)NC(=O)CSC[C@@H](C(=O)N[C@H](CC(N)=O)C(=O)NCCCCCCCCCCC(=O)O)NC(=O)[C@H](C(C)O)NC(=O)[C@H](C(C)C)NC(=O)[C@H](CC3CCCCC3)NC(=O)[C@H](CCN)NC(=O)[C@@H](CC(C)C)NC(=O)[C@H](C)N(C)C(=O)[C@H](CCCNC(N)=O)NC(=O)[C@H](Cc3ccc(-c4ccccc4)cc3)NC(=O)[C@H](C(C)C)NC2=O)c1` (stereo partly drawn) [Example 2312] ({CH2CO}-RY(Carboxymethyl)D[Phe(3-Me)]V[Bip][Cit][NMeA][dL][Dab][Cha]V[Thr(3ξ)]C[dN][Aun]-OH; thioether N-14), the IC50 was 8.7 nM.

Take `Cc1cccc(C[C@@H]2NC(=O)[C@H](CC(=O)O)NC(=O)[C@H](Cc3ccc(OCC(=O)O)cc3)NC(=O)[C@H](C(C)O)NC(=O)CSC[C@@H](C(=O)N[C@H](CC(N)=O)C(=O)NCCCCCCCCCCC(=O)O)NC(=O)[C@H](C(C)O)NC(=O)[C@H](C(C)C)NC(=O)[C@H](CC3CCCCC3)NC(=O)[C@H](CCN)NC(=O)[C@@H](CC(C)C)NC(=O)[C@H](C)N(C)C(=O)[C@H](CCCNC(N)=O)NC(=O)[C@H](Cc3ccc(-c4ccccc4)cc3)NC(=O)[C@H](C(C)C)NC2=O)c1` (stereo partly drawn) [Example 2313] ({CH2CO}-[Thr(3ξ)]Y(Carboxymethyl)D[Phe(3-Me)]V[Bip][Cit][NMeA][dL][Dab][Cha]V[Thr(3ξ)]C[dN][Aun]-OH; thioether N-14): the IC50 turned out to be 10.1 nM.

Consider `Cc1cccc(C[C@@H]2NC(=O)[C@H](CC(=O)O)NC(=O)[C@H](Cc3ccc(OCC(=O)O)cc3)NC(=O)[C@H](C(C)O)NC(=O)CSC[C@@H](C(=O)N[C@H](CC(N)=O)C(=O)NCCCCCCCCCCC(=O)O)NC(=O)[C@H](C(C)O)NC(=O)[C@H](C(C)C)NC(=O)[C@H](CC3CCCCC3)NC(=O)[C@H](CCN)NC(=O)[C@@H](CC(C)C)NC(=O)[C@H](C)N(C)C(=O)[C@H](Cc3ccc(O)cc3)NC(=O)[C@H](Cc3ccc(-c4ccccc4)cc3)NC(=O)[C@H](Cc3ccc(O)cc3)NC2=O)c1` (stereo partly drawn) [Example 2314] ({CH2CO}-[Thr(3ξ)]Y(Carboxymethyl)D[Phe(3-Me)]Y[Bip]Y[NMeA][dL][Dab][Cha]V[Thr(3ξ)]C[dN][Aun]-OH; thioether N-14), for which the IC50 came out at 21.7 nM.

Take `Cc1cccc(C[C@@H]2NC(=O)[C@H](CC(=O)O)NC(=O)[C@H](Cc3ccc(OCC(=O)O)cc3)NC(=O)[C@H](C(C)O)NC(=O)CSC[C@@H](C(=O)N[C@H](CC(N)=O)C(=O)NCCCCCCCCCCC(=O)O)NC(=O)[C@H](C(C)O)NC(=O)[C@H](C(C)C)NC(=O)[C@H](CC3CCCCC3)NC(=O)[C@H](CCN)NC(=O)[C@@H](CC(C)C)NC(=O)[C@H](C)N(C)C(=O)[C@H](CCCNC(N)=O)NC(=O)[C@H](Cc3ccc(-c4ccccc4)cc3)NC(=O)[C@H](Cc3ccccc3)NC2=O)c1` (stereo partly drawn) [Example 2315] ({CH2CO}-[Thr(3ξ)]Y(Carboxymethyl)D[Phe(3-Me)]F[Bip][Cit][NMeA][dL][Dab][Cha]V[Thr(3ξ)]C[dN][Aun]-OH; thioether N-14): the IC50 was 9.7 nM.

As for `CC(=O)NCCCC[C@@H]1NC(=O)[C@H](Cc2ccc(-c3ccccc3)cc2)NC(=O)[C@H](C(C)C)NC(=O)[C@H](Cc2c[nH]c3ccccc23)NC(=O)[C@H](CC(=O)O)NC(=O)[C@H](Cc2ccc(OCC(=O)O)cc2)NC(=O)[C@H](Cc2ccc(OCC(=O)O)cc2)NC(=O)CSC[C@@H](C(=O)NCCOCCOCC(=O)NCCCCCCCCCCC(=O)O)NC(=O)[C@H](CCO)NC(=O)[C@H](C(C)C)NC(=O)[C@H](CC2CCCCC2)NC(=O)[C@H](CCN)NC(=O)[C@@H](CC(C)C)NC(=O)[C@H](C)N(C)C1=O` [Example 2316] ({CH2CO}-Y(Carboxymethyl)Y(Carboxymethyl)DWV[Bip]K(Ac)[NMeA][dL][Dab][Cha]V[hSer]C[AEEA][Aun]-OH; thioether N-14), the IC50 worked out at 11.3 nM.

As for `Cc1cccc(C[C@@H]2NC(=O)[C@H](CC(=O)O)NC(=O)[C@H](Cc3ccc(C(=O)O)cc3)NC(=O)[C@H](Cc3ccc(OCC(=O)O)cc3)NC(=O)CSC[C@@H](C(=O)NCCOCCOCC(=O)NCCCCCCCCCCC(=O)O)NC(=O)[C@H](CCO)NC(=O)[C@H](C(C)C)NC(=O)[C@H](CC3CCCCC3)NC(=O)[C@H](CCN)NC(=O)[C@@H](CC(C)C)NC(=O)[C@H](C)N(C)C(=O)[C@H](CCCNC(N)=O)NC(=O)[C@H](Cc3ccc(-c4ccccc4)cc3)NC(=O)[C@H](C(C)C)NC2=O)c1` [Example 2317] ({CH2CO}-Y(Carboxymethyl)[Phe(4-COOH)]D[Phe(3-Me)]V[Bip][Cit][NMeA][dL][Dab][Cha]V[hSer]C[AEEA][Aun]-OH; thioether N-14), the IC50 stood at 8.9 nM.

On to `Cc1cccc(C[C@@H]2NC(=O)[C@H](CC(=O)O)NC(=O)[C@H](Cc3ccc(OCC(=O)O)cc3)NC(=O)[C@H](CCCNC(=N)N)NC(=O)CSC[C@@H](C(=O)NCCOCCOCC(=O)NCCCCCCCCCCC(=O)O)NC(=O)[C@H](C(C)O)NC(=O)[C@H](C(C)C)NC(=O)[C@H](CC3CCCCC3)NC(=O)[C@H](CCN)NC(=O)[C@@H](CC(C)C)NC(=O)[C@H](C)N(C)C(=O)[C@H](CCCNC(N)=O)NC(=O)[C@H](Cc3ccc(-c4ccccc4)cc3)NC(=O)[C@H](C(C)C)NC2=O)c1` (stereo partly drawn) [Example 2318] ({CH2CO}-RY(Carboxymethyl)D[Phe(3-Me)]V[Bip][Cit][NMeA][dL][Dab][Cha]V[Thr(3ξ)]C[AEEA][Aun]-OH; thioether N-14), for which the IC50 worked out at 7.8 nM.

Turning to `CC(C)C[C@H]1NC(=O)[C@H](C)N(C)C(=O)[C@H](CCCNC(N)=O)NC(=O)[C@H](Cc2ccc(-c3ccccc3)cc2)NC(=O)[C@H](C(C)C)NC(=O)[C@H](Cc2c[nH]c3ccccc23)NC(=O)[C@H](CC(=O)O)NC(=O)[C@H](Cc2ccc(OCC(=O)O)cc2)NC(=O)[C@H](Cc2ccc(OCC(=O)O)cc2)NC(=O)CSC[C@@H](C(=O)NCCOCCOCC(=O)NCCCCCCCCCCC(=O)O)NC(=O)[C@H](CCO)NC(=O)[C@H](C(C)C)NC(=O)[C@H](CC2CCCCC2)NC(=O)[C@H](CCN)NC1=O` [Example 2319] ({CH2CO}-Y(Carboxymethyl)Y(Carboxymethyl)DWV[Bip][Cit][NMeA][dL][Dab][Cha]V[hSer]C[AEEA][Aun]-OH; thioether N-14), the IC50 worked out at 15.6 nM.

Take `Cc1cccc(C[C@@H]2NC(=O)[C@H](CC(=O)O)NC(=O)[C@H](Cc3ccc(OCC(=O)O)cc3)NC(=O)[C@H](C(C)O)NC(=O)CSC[C@@H](C(=O)NCCOCCOCC(=O)NCCCCCCCCCCC(=O)O)NC(=O)[C@H](C(C)O)NC(=O)[C@H](C(C)C)NC(=O)[C@H](CC3CCCCC3)NC(=O)[C@H](CCN)NC(=O)[C@@H](CC(C)C)NC(=O)[C@H](C)N(C)C(=O)[C@H](CCCNC(N)=O)NC(=O)[C@H](Cc3ccc(-c4ccccc4)cc3)NC(=O)[C@H](C(C)C)NC2=O)c1` (stereo partly drawn) [Example 2320] ({CH2CO}-[Thr(3ξ)]Y(Carboxymethyl)D[Phe(3-Me)]V[Bip][Cit][NMeA][dL][Dab][Cha]V[Thr(3ξ)]C[AEEA][Aun]-OH; thioether N-14): the IC50 came to 7.1 nM.

`CC(=O)NCCCC[C@@H]1NC(=O)[C@H](Cc2ccc(-c3ccccc3)cc2)NC(=O)[C@H](C(C)C)NC(=O)[C@H](Cc2c[nH]c3ccccc23)NC(=O)[C@H](CC(=O)O)NC(=O)[C@H](Cc2ccc(OCC(=O)O)cc2)NC(=O)[C@H](Cc2ccc(OCC(=O)O)cc2)NC(=O)CSC[C@@H](C(=O)NCCOCCOCC(=O)NCCCCCCCCCCC(=O)O)NC(=O)[C@H](C(C)O)NC(=O)[C@H](C(C)C)NC(=O)[C@H](CC2CCCCC2)NC(=O)[C@H](CCN)NC(=O)[C@@H](CC(C)C)NC(=O)[C@H](C)N(C)C1=O` (stereo partly drawn) [Example 2321] ({CH2CO}-Y(Carboxymethyl)Y(Carboxymethyl)DWV[Bip]K(Ac)[NMeA][dL][Dab][Cha]V[Thr(3ξ)]C[AEEA][Aun]-OH; thioether N-14): the IC50 is 5.8 nM.

For the origin of these results see patent US20260070945A1, “MACROCYCLIC IMMUNOMODULATORS” (Bristol-Myers Squibb Company, priority 2022, published 2026).
